# According to patent US12303551B2, “Cellular immunotherapy compositions and uses thereof” (CERO THERPEUTICS HOLDINGS, INC., priority 2018, dated 2025):
# System: HCC827 NSCLC cells
# Test: FACS phagocytosis assay of TAMRA-SE labeled HCC827 cells with or without bafilomycin
# Format: cell-based
# Settings: 20 nM added to co-culture
# Text: FIGS. 73A-73B show ablation of CER-induced phagocytosis by bafilomycin, an inhibitor of phagolysosome V-ATPase. CER104-modified CD4+ T cells and mock transduced CD4+ T cells (control) were co-cultured with HCC827 cells that were labeled with TAMRA-SE fluorescent dye and treated with osimertinib. Phagocytosis was quantified by FACs.
# T cells were transduced with lentiviral vector comprising hCER104 nucleic acid as described in Example 6. hCER104 modified T cells were co-cultured with HCC827 adenocarcinoma cells with or without osimertinib. […] FACs plots from in vitro phagocytosis assays in hCER104 modified T cells or mock transduced control T cells are shown in FIG. 73B.
structure (smiles),measurement,value
"CO/C1=C\C(C)=C\[C@@H](C)[C@@H](O)[C@@H](C)C/C(C)=C/C=C/[C@H](OC)[C@@H]([C@@H](C)[C@@H](O)[C@H](C)[C@@]2(O)C[C@@H](O)[C@H](C)[C@@H](C(C)C)O2)OC1=O [bafilomycin, reference compound]",effect on uptake of labeled HCC827 cells by hCER104 modified T cells,blocked uptake
